Data taken from patent US20130172345A1, “1-ACYL-4-(PHENOXY, BENZYLOXY, OR PHENYLAMINO)-1,2,3,4-TETRAHYDROQUINOLINE DERIVATIVES” (KOWA COMPANY, LTD., priority 2007, published 2013).
Where a name gives a salt, the structure may show the parent alone.

System: K562 cells, human proerythroblast cells
Experiment: Hemoglobin production in K562 cells (fluorescence of the porphyrin ring)
Type: cell-based
Settings: 144 h, test compound 6 μM, 3+3 days, non-stimulated state = 100%, read-out: production amount of hemoglobin, % of control (6 μM)
Protocol: K562 cells (obtained from ATCC), which are human proerythroblast cells, were seeded at a density of 1×10^5 cells/1 mL on a 24-well plate by using complete medium (RPMI-1640 medium comprising 10% bovine fetal serum). After adding the test compound having 1000× concentration (1 μL), the cells were incubated for three days in a CO2 incubator (37° C., 5% CO2). After exchanging the medium, the cells were further incubated for three days. Then, the cells were collected and counted. After adjusting them to have 3×10^5 cells, the amount of hemoglobin produced in the cells was determined by measuring fluorescence of the porphyrin ring. Specifically, the cells which had been collected by centrifugation were suspended in 2 M oxalic acid solution (500 μL) and boiled for 30 minutes under heating. After cooling the cells, the fluorescence intensity was measured by Fluorescence micro plate reader (Spectra MAX GeminiEM, manufactured by Molecular Devices Corporation) ([…]). When hemoglobin amount in non-stimulated state, i.e., without addition of any compound, was 100%, the production amount of hemoglobin induced by each compound was calculated (% of control).

Compared with `CC(=O)N1c2cc(F)ccc2[C@H](Oc2ccccc2)C[C@@H]1C` (relative stereo) [Compound 32, cis-1-acetyl-7-fluoro-2-methyl-4-phenoxy-1,2,3,4-tetrahydroquinoline], `CC(=O)N1c2ccc(F)cc2[C@H](Oc2ccccc2)C[C@@H]1C` (relative stereo) [Compound 35, cis-1-acetyl-6-fluoro-2-methyl-4-phenoxy-1,2,3,4-tetrahydroquinoline] is higher in activity at 6 µM: 145% for the first, 287% for the second.

Compared with `CC(=O)N1c2c(F)cccc2[C@H](Oc2ccccc2)C[C@@H]1C` (relative stereo) [Compound 33, cis-1-acetyl-8-fluoro-2-methyl-4-phenoxy-1,2,3,4-tetrahydroquinoline], `CC(=O)N1c2ccccc2C(Oc2ccc(N)cc2)CC1C` (stereo not shown) [Compound 68, 1-acetyl-4-(4-aminophenoxy)-2-methyl-1,2,3,4-tetrahydroquinoline] is higher in activity at 6 µM: 115% for the first, 154% for the second.

First: CC(=O)N1c2cc(F)ccc2[C@H](Nc2cccc(F)c2)C[C@@H]1C (relative stereo) [Compound 58, cis-1-acetyl-7-fluoro-4-[(3-fluorophenyl)amino]-2-methyl-1,2,3,4-tetrahydroquinoline]
Second: COc1ccc2c(c1)N(C(C)=O)C(C)CC2Nc1ccccc1 (stereo not shown) [Compound 48, 1-acetyl-2-methyl-7-methoxy-4-phenylamino-1,2,3,4-tetrahydroquinoline]
The activity at 6 µM of the first is lower: 107% for the first, 139% for the second.

Compared with `CC(=O)N1c2ccccc2[C@H](Oc2ccc(OCc3ccccc3)cc2)C[C@@H]1C` (relative stereo) [Compound 64, cis-1-acetyl-4-(4-benzyloxyphenoxy)-2-methyl-1,2,3,4-tetrahydroquinoline], `CC(=O)N1c2ccccc2[C@H](Nc2ccc(Cc3ccccc3)cc2)C[C@@H]1C` (relative stereo) [Compound 112, cis-1-acetyl-4-[(4-benzylphenyl)amino]-2-methyl-1,2,3,4-tetrahydroquinoline] is higher in activity at 6 µM: 113% for the first, 139% for the second.

Compared with `CC(=O)N1c2ccc(C(N)=O)cc2[C@H](Nc2ccc(NS(C)(=O)=O)cc2)C[C@@H]1C` (relative stereo) [Compound 102, cis-1-acetyl-4-[(4-methanesulfonylaminophenyl)amino]-2-methyl-1,2,3,4-tetrahydroquinoline-6-carboxamide], `CC(=O)N1c2ccc(C(N)=O)cc2[C@H](Nc2ccc(CC(N)=O)cc2)C[C@@H]1C` (relative stereo) [Compound 106, cis-1-acetyl-4-[(4-carbamoylmethylphenyl)amino]-2-methyl-1,2,3,4-tetrahydroquinoline-6-carboxamide] is higher in activity at 6 µM: 91% for the first, 227% for the second.

First: CC(=O)N1c2ccccc2[C@H](Nc2ccccc2C(=O)O)C[C@@H]1C (relative stereo) [Compound 109, cis-1-acetyl-4-[(2-carboxyphenyl)amino]-2-methyl-1,2,3,4-tetrahydroquinoline]
Second: CCC1CC(Nc2ccccc2)c2ccccc2N1C(C)=O (stereo not shown) [Compound 59, 1-acetyl-2-ethyl-4-phenylamino-1,2,3,4-tetrahydroquinoline]
The activity at 6 µM of the first is higher: 229% for the first, 108% for the second.

Going from `COc1ccc2c(c1)C(Nc1ccc(F)cc1)CC(C)N2C(C)=O` (stereo not shown) [Compound 37, 1-acetyl-4-[(4-fluorophenyl)amino]-2-methyl-6-methoxy-1,2,3,4-tetrahydroquinoline] to `CC(=O)N1c2ccc(NCCO)cc2C(Nc2ccc(Cl)cc2)CC1C` (stereo not shown) [Compound 82, 1-acetyl-4-[(4-chlorophenyl)amino]-6-[(2-hydroxy)ethylamino]-2-methyl-1,2,3,4-tetrahydroquinoline], the activity at 6 µM falls from 494% to 325%.

First: CC(=O)N1CC(C)(C)C(Nc2ccccc2)c2ccccc21 (stereo not drawn) [Compound 60, cis-1-acetyl-3,3-dimethyl-4-phenylamino-1,2,3,4-tetrahydroquinoline]
Second: COc1cccc2c1N(C(C)=O)C(C)CC2Nc1ccccc1 (stereo not shown) [Compound 61, 1-acetyl-4-phenylamino-8-methoxy-2-methyl-1,2,3,4-tetrahydroquinoline]
The activity at 6 µM of the first is lower: 113% for the first, 132% for the second.

Compared with `CC(=O)N1c2c(Br)cccc2C(Nc2ccccc2)CC1C` (stereo not shown) [Compound 63, 1-acetyl-8-bromo-4-phenylamino-2-methyl-1,2,3,4-tetrahydroquinoline], `CC(=O)N1c2ccccc2C(Oc2ccc([N+](=O)[O-])cc2)CC1C` (stereo not shown) [Compound 67, 1-acetyl-2-methyl-4-(4-nitrophenoxy)-1,2,3,4-tetrahydroquinoline] is higher in activity at 6 µM: 98% for the first, 119% for the second.

Going from `CC1CC(Nc2ccc(F)cc2)c2cc(F)ccc2N1C(=O)C1CCCC1` (stereo not shown) [Compound 66, 1-cyclopentanecarbonyl-6-fluoro-2-methyl-4-[(4-fluorophenyl)amino]-1,2,3,4-tetrahydroquinoline] to `CC(=O)N1c2ccc(C(=O)N3CCOCC3)cc2C(Nc2ccc(Cl)cc2)CC1C` (stereo not shown) [Compound 93, 1-acetyl-4-[(4-chlorophenyl)amino]-6-[(1-morpholino)carbonyl]-2-methyl-1,2,3,4-tetrahydroquinoline.hydrochloride], the activity at 6 µM rises from 151% to 245%.

Compared with `CC(=O)N1c2ccc(N3CC(C)OC(C)C3)cc2C(Nc2ccc(Cl)cc2)CC1C` (stereo not drawn) [Compound 83, 1-acetyl-4-[(4-chlorophenyl)amino]-6-[(cis-3,5-dimethyl)morpholino]-2-methyl-1,2,3,4-tetrahydroquinoline], `CC(=O)N1c2ccc(N3CCN(C(=O)C(C)C)CC3)cc2C(Nc2ccc(Cl)cc2)CC1C` (stereo not shown) [Compound 84, 1-acetyl-4-[(4-chlorophenyl)amino]-6-[(4-isopropylcarbonyl)piperazino]-2-methyl-1,2,3,4-tetrahydroquinoline] is higher in activity at 6 µM: 282% for the first, 286% for the second.

Compared with `CC(=O)N1c2ccc(N3CCN(C(=O)c4ccccc4)CC3)cc2C(Nc2ccc(Cl)cc2)CC1C` (stereo not shown) [Compound 86, 1-acetyl-6-[(4-benzoyl)piperazino]-2-methyl-4-[(4-chlorophenyl)amino]-1,2,3,4-tetrahydroquinoline], `CC(=O)N1c2ccc(N3CCN(C(=O)NC(C)C)CC3)cc2C(Nc2ccc(Cl)cc2)CC1C` (stereo not shown) [Compound 88, 1-acetyl-4-[(4-chlorophenyl)amino]-6-[4-(isopropylaminocarbonyl)piperazino]-2-methyl-1,2,3,4-tetrahydroquinoline] is lower in activity at 6 µM: 237% for the first, 112% for the second.

Going from `CCN(CC)C(=O)N1CCN(c2ccc3c(c2)C(Nc2ccc(Cl)cc2)CC(C)N3C(C)=O)CC1` (stereo not shown) [Compound 87, 1-acetyl-4-[(4-chlorophenyl)amino]-6-[4-(N,N-diethylaminocarbonyl)piperazino]-2-methyl-1,2,3,4-tetrahydroquinoline] to `CC(=O)N1CCN(c2ccc3c(c2)C(Nc2ccc(CC(=O)O)cc2)CC(C)N3C(C)=O)CC1` (stereo not shown) [Compound 91, 1-acetyl-6-(4-acetylpiperazinyl)-4-[(4-carboxymethylphenyl)amino]-2-methyl-1,2,3,4-tetrahydroquinoline], the activity at 6 µM falls from 262% to 130%.

Going from `CC(=O)N1c2ccc(N3CCOCC3)cc2C(Nc2ccc(CC(=O)O)cc2)CC1C` (stereo not shown) [Compound 89, 1-acetyl-4-[(4-carboxymethylphenyl)amino]-6-morpholino-2-methyl-1,2,3,4-tetrahydroquinoline] to `CC(=O)N1c2ccc(N3CCOCC3)cc2C(Nc2ccc(CC(N)=O)cc2)CC1C` (stereo not shown) [Compound 90, 1-acetyl-4-[(4-carbamoylmethylphenyl)amino]-2-methyl-6-morpholino-1,2,3,4-tetrahydroquinoline], the activity at 6 µM rises from 154% to 241%.
